The values that follow are results of earlier work, collected in patent US20200030253A1, “Methods and compositions for treatment of body conditions” (priority 2018, published 2020).

The conditions of the series: octanol-water.

With `C=C(C)[C@@H]1CCC(C)=C[C@H]1c1c(O)cc(CCCCC)cc1O` [Cannabidiol], the “Koctanol-water (lipophilicity)” value is given as 6-7.
